Molecules are shown by their SMILES. Counter-ions that a name gives are not always drawn.

The first data set in a line: in vitro. The note with it: rat, gh3-tre-luc cells, AC50 (uM) modified / 1000.
`O=C(O)Cc1ccccc1Nc1c(Cl)cccc1Cl` [Diclofenac sodium] showed a CC50 at 24 h greater than 90 µM. Same read-out and setting: under `COC(=O)C(C)Oc1ccc(Oc2ccc(Cl)cc2Cl)cc1` (centres unmarked) [Diclofop-methyl] stands greater than 90 µM; under `Nc1c(Cl)cc([N+](=O)[O-])cc1Cl` [Dicloran], greater than 90 µM. On the same count and under the same terms, under `CCOc1nc(F)cc2nc(S(=O)(=O)Nc3c(Cl)cccc3Cl)nn12` [Diclosulam] stands greater than 90 µM.

As for `Cc1onc(-c2c(Cl)cccc2Cl)c1C(=O)N[C@@H]1C(=O)N2[C@@H]1SC(C)(C)[C@@H]2C(=O)O` [Dicloxacillin sodium salt monohydrate], the CC50 at 24 h was greater than 50 µM. On the same count and under the same terms, under `OC(c1ccc(Cl)cc1)(c1ccc(Cl)cc1)C(Cl)(Cl)Cl` [Dicofol] stands 79.5 µM; under `O=c1oc2ccccc2c(O)c1Cc1c(O)c2ccccc2oc1=O` [Dicumarol], greater than 20 µM; under `C1CCC(SSC2CCCCC2)CC1` [Dicyclohexyl disulfide], greater than 90 µM. The compound `O=C(OC1CCCCC1)c1ccccc1C(=O)OC1CCCCC1` [Dicyclohexyl phthalate] had a CC50 at 24 h of 40.2 µM. On the same count and under the same terms, next, `O=C(CC(C(=O)OC1CCCCC1)S(=O)(=O)O)OC1CCCCC1` (centres unmarked) [Dicyclohexyl sodium sulfosuccinate]: greater than 90 µM; `C1C2OC2C2C1C1CC2C2OC12` (centres unmarked) [Dicyclopentadiene dioxide]: greater than 90 µM. Still for that read-out and setting: next, `C1=CC2C3C=CC(C3)C2C1` (centres unmarked) [Dicyclopentadiene]: greater than 90 µM. On the same count and under the same terms, next, `CCCCCCCCCCOC(=O)c1ccccc1C(=O)OCCCCCCCCCC` [Didecyl phthalate]: greater than 90 µM; `CCCCCCCCCC[N+](C)(C)CCCCCCCCCC` [Didecyldimethylammonium chloride]: 10.7 µM; `CCCCCCCCCCCC[N+](C)(C)CCCCCCCCCCCC` [Didodecyldimethylammonium bromide]: 12.2 µM. Consider `C/C=C(/C(=C/C)c1ccc(O)cc1)c1ccc(O)cc1` [Dienestrol], for which the CC50 at 24 h is 16.1 µM. The same measure, in the same setting: next, `OCCNCCO` [Diethanolamine]: greater than 90 µM; `CCO[Si](C)(CCCOCC1CO1)OCC` (centres unmarked) [Diethoxy(methyl)[3-(oxiran-2-ylmethoxy)propyl]silane]: greater than 90 µM.

For the compound `CCOC(=O)/C=C/C(=O)OCC` [Diethyl (2E)-but-2-enedioate], the CC50 at 24 h is greater than 90 µM.

With `CCOC(=O)CCC(=O)OCC` [Diethyl butanedioate], the CC50 at 24 h was greater than 90 µM. Still for that read-out and setting: under `CCOC(=O)OCC` [Diethyl carbonate] stands greater than 100 µM; under `CCOC(=O)CCCCCCCCC(=O)OCC` [Diethyl decanedioate], greater than 90 µM; under `CCOC(=O)/C=C\C(=O)OCC` [Diethyl maleate], greater than 90 µM.

In the case of `CCOC(=O)C(=O)OCC` [Diethyl oxalate], the half-maximal cytotoxic concentration (CC50) at 24 h is greater than 90 µM. The same measure, in the same setting: under `CCOC(=O)c1ccccc1C(=O)OCC` [Diethyl phthalate] stands greater than 90 µM; under `CCOC(=O)CC(=O)OCC` [Diethyl propanedioate], greater than 90 µM. `CCOS(=O)(=O)OCC` [Diethyl sulfate] came in with a CC50 at 24 h greater than 90 µM. On the same count and under the same terms, next, `CCSCC` [Diethyl sulfide]: greater than 100 µM; `CCN(CC)C(C)=O` [Diethylacetamide]: greater than 100 µM; `CCNCC` [Diethylamine]: greater than 100 µM. As for `CCN(CC)CCOC[C@H]1O[C@@H](O)[C@H](OCCN(CC)CC)[C@@H](O)[C@@H]1O` [Diethylaminoethyl-sephacel], the CC50 at 24 h was greater than 50 µM.

Regarding `CCN(CC)C(=O)N1CCN(C)CC1` [Diethylcarbamazine citrate], the CC50 at 24 h was greater than 20 µM. On to `C=CC(=O)OCCOCCOC(=O)C=C` [Diethylene glycol diacrylate], for which half-maximal cytotoxicity (CC50 at 24 h) was put at 21.6 µM. Still for that read-out and setting: under `O=C(OCCOCCOC(=O)c1ccccc1)c1ccccc1` [Diethylene glycol dibenzoate] stands greater than 90 µM; under `CCCCOCCOCCOCCCC` [Diethylene glycol dibutyl ether], greater than 90 µM; under `CCOCCOCCOCC` [Diethylene glycol diethyl ether], greater than 90 µM.

With `COCCOCCOC` [Diethylene glycol dimethyl ether], the CC50 at 24 h was greater than 90 µM. On the same count and under the same terms, under `COCCOCCO` [Diethylene glycol monomethyl ether] stands greater than 90 µM; under `OCCOCCO` [Diethylene glycol], greater than 90 µM. Still for that read-out and setting: next, `NCCNCCN` [Diethylenetriamine]: greater than 90 µM; `CCN(C=O)CC` [Diethylformamide]: greater than 90 µM. Regarding `CCN(CC)C(C)C(=O)c1ccccc1` (centres unmarked) [Diethylpropion hydrochloride], the CC50 at 24 h was greater than 50 µM. On the same count and under the same terms, next, `CC/C(=C(/CC)c1ccc(OP(=O)(O)O)cc1)c1ccc(OP(=O)(O)O)cc1` [Diethylstilbestrol diphosphate]: greater than 50 µM. Same read-out and setting: next, `CCC(=O)Oc1ccc(/C(CC)=C(\CC)c2ccc(OC(=O)CC)cc2)cc1` [Diethylstilbestrol dipropionate]: greater than 90 µM; `CC1COC(Cn2cncn2)(c2ccc(Oc3ccc(Cl)cc3)cc2Cl)O1` (centres unmarked) [Difenoconazole]: 41.3 µM.

Regarding `CC(C(O)c1ccccc1)N(C)CCOC(c1ccccc1)c1ccccc1` (centres unmarked) [Difeterol], the CC50 at 24 h worked out at 15.1 µM. Compared with the last compound, the CC50 at 24 h is about 2.7-fold lower. The same measure, in the same setting: next, `CC(=O)OCC(=O)[C@@]1(OC(C)=O)[C@@H](C)C[C@H]2[C@@H]3C[C@H](F)C4=CC(=O)C=C[C@]4(C)[C@@]3(F)[C@@H](O)C[C@@]21C` [Diflorasone diacetate]: greater than 50 µM; `CN1CCN(c2cc3c(cc2F)c(=O)c(C(=O)O)cn3-c2ccc(F)cc2)CC1` [Difloxacin hydrochloride]: greater than 50 µM. Still for that read-out and setting: next, `O=C(NC(=O)c1c(F)cccc1F)Nc1ccc(Cl)cc1` [Diflubenzuron]: greater than 90 µM. `O=C(Nc1ccc(F)cc1F)c1cccnc1Oc1cccc(C(F)(F)F)c1` [Diflufenican] displayed a CC50 at 24 h greater than 100 µM.

`O=C(O)c1cc(-c2ccc(F)cc2F)ccc1O` [Diflunisal] displayed a CC50 at 24 h greater than 20 µM.

In turn, `CCCC(=O)O[C@]1(C(=O)COC(C)=O)CC[C@H]2[C@@H]3C[C@H](F)C4=CC(=O)C=C[C@]4(C)[C@@]3(F)[C@@H](O)C[C@@]21C` [Difluprednate] showed a CC50 at 24 h greater than 50 µM. On the same count and under the same terms, under `COc1ccc(-n2nc(C(F)F)cc2-c2ccc([S+](C)[O-])cc2)cc1` (centres unmarked) [Difpas-pyrazole] stands greater than 90 µM.

For the compound `O=C1c2ccccc2CN2C(=O)c3ccccc3CN12` [Diftalone], the CC50 at 24 h was greater than 50 µM. Same read-out and setting: under `C[C@@H]1CC[C@@]2(OC1)O[C@H]1[C@@H](O)[C@H]3[C@@H]4CC[C@H]5C[C@@H](O[C@@H]6O[C@H](CO)[C@H](O[C@@H]7O[C@H](CO)[C@@H](O)[C@H](O[C@@H]8OC[C@@H](O)[C@H](O)[C@H]8O)[C@H]7O[C@@H]7O[C@H](CO)[C@H](O)[C@H](O[C@@H]8O[C@H](CO)[C@@H](O)[C@H](O)[C@H]8O)[C@H]7O)[C@H](O)[C@H]6O)[C@H](O)C[C@]5(C)[C@H]4CC[C@]3(C)[C@H]1[C@@H]2C` [Digitonin] stands 1.67 µM; under `C[C@H]1O[C@@H](O[C@H]2[C@@H](O)C[C@H](O[C@H]3[C@@H](O)C[C@H](O[C@H]4CC[C@@]5(C)[C@H](CC[C@@H]6[C@@H]5CC[C@]5(C)[C@@H](C7=CC(=O)OC7)CC[C@]65O)C4)O[C@@H]3C)O[C@@H]2C)C[C@H](O)[C@@H]1O` [Digitoxin], greater than 60 µM. Still for that read-out and setting: under `c1cc(OCC2CO2)cc(OCC2CO2)c1` (centres unmarked) [Diglycidyl resorcinol ether] stands 17.3 µM. Same read-out and setting: next, `O=C(O)COCC(=O)O` [Diglycolic acid]: greater than 90 µM.

Still in this data set, the particulars now being: rat, gh3-tre-luc cells, AC50 (uM) modified / 1000, Tox21_110001=Tox21_111044; viability, 1 nM T3 present, 24 h.
In turn, `C1CCC(NC2CCCCC2)CC1` [Dicyclohexylamine] registered a CC50 at 24 h greater than 50 µM.

Still in this data set, the particulars now being: rat, gh3-tre-luc cells, AC50 (uM) modified / 1000, Tox21_110001=Tox21_111052; viability, 1 nM T3 present, 24 h.
The compound `COP(=O)(OC)OC=C(Cl)Cl` [Dichlorvos] returned a CC50 at 24 h greater than 50 µM.

The same data set, now with this note: rat, gh3-tre-luc cells, AC50 (uM) modified / 1000, Tox21_110001=Tox21_113156; viability, 1 nM T3 present, 24 h.
`S=C(SSC(=S)N1CCCCC1)N1CCCCC1` [Dicyclopentamethylenethiuram disulfide] yielded a CC50 at 24 h of 0.373 µM.

Still in this data set, the particulars now being: rat, gh3-tre-luc cells, AC50 (uM) modified / 1000, Tox21_110001=Tox21_201486; viability, 1 nM T3 present, 24 h.
For `Cn1c(-c2ccccc2)cc(-c2ccccc2)[n+]1C` [Difenzoquat metilsulfate], the CC50 at 24 h was greater than 90 µM.

Staying with this data set, now noted: rat, gh3-tre-luc cells, AC50 (uM) modified / 1000, Tox21_110001=Tox21_201617; viability, 1 nM T3 present, 24 h.
Regarding `COP(=O)(OC)OC=C(Cl)Cl` [Dichlorvos], the half-maximal cytotoxic concentration (CC50) at 24 h is greater than 90 µM.

The data set is the same for the next values; noted with them: rat, gh3-tre-luc cells, AC50 (uM) modified / 1000, Tox21_110001=Tox21_201771; viability, 1 nM T3 present, 24 h.
For `C1CCC(NC2CCCCC2)CC1` [Dicyclohexylamine], the CC50 at 24 h is greater than 90 µM.

The same data set, now with this note: rat, gh3-tre-luc cells, AC50 (uM) modified / 1000, Tox21_110001=Tox21_300997; viability, 1 nM T3 present, 24 h.
`C/C(=N\NC(=O)Nc1cc(F)cc(F)c1)c1ncccc1C(=O)O` [Diflufenzopyr-sodium] had a CC50 at 24 h greater than 90 µM.

Staying with this data set, now noted: rat, gh3-tre-luc cells, AC50 (uM) modified / 1000, Tox21_110001=Tox21_301078; viability, 1 nM T3 present, 24 h.
`COP(=O)(OC)O/C(C)=C/C(=O)N(C)C` [Dicrotophos] gave a CC50 at 24 h greater than 90 µM.

The same data set, now with this note: rat, gh3-tre-luc cells, AC50 (uM) modified / 1000, Tox21_110001=Tox21_302104; viability, 1 nM T3 present, 24 h.
`C1CCC(C2CCCCC2)CC1` [Dicyclohexyl]: the CC50 at 24 h was greater than 90 µM.

The data set is the same for the next values; noted with them: rat, gh3-tre-luc cells, AC50 (uM) modified / 1000, Tox21_110001=Tox21_400029; viability, 1 nM T3 present, 24 h.
Turning to `ClC1=C(Cl)[C@]2(Cl)[C@@H]3[C@@H]4C[C@@H]([C@H]5O[C@@H]45)[C@@H]3[C@@]1(Cl)C2(Cl)Cl` [Dieldrin], the CC50 at 24 h amounted to 75.8 µM. This lies in the double-digit micromolar range.

The record behind these values is PMC6792352, “Limited Chemical Structural Diversity Found to Modulate Thyroid Hormone Receptor in the Tox21 Chemical Library” (Environmental Health Perspectives, 2019).
